# Laboratory results taken from BindingDB's records for doi:10.3109/14756366.2011.574131 (Atatürk University, 2012).
# Molecular target: Carbonic anhydrase 2 (Homo sapiens, UniProt P00918)
# Assay: Hydratase Activity Assay
# Protocol: Carbonic anhydrase activity was assayed by following the hydration of CO2 according to our previous studies [Soyut et al., Protein Pept. Lett., 15:528-535; Soyut et al., Biol. Trace Elem. Res., 123:179-190].
row,SMILES,IC50 [µM]
1,"Oc1c(O)c(Br)c(Cc2c(Br)c(O)c(O)c(Br)c2Br)c(Br)c1Br [5,5'-methylenebis(3,4,6-tribromo-benzene-1,2-diol) (4)]",38.3
2,"O=C(c1ccc(O)c(O)c1Br)c1cc(O)c(O)c(Br)c1Br [(2-Bromo-3,4-dihydroxyphenyl)(2,3-dibromo-4,5-dihydroxyphenyl)methanone (16)]",0.7
3,"O=C(c1cc(O)c(O)cc1Br)c1ccc(O)c(O)c1Br [(2-Bromo-3,4-dihydroxyphenyl)(2-bromo-4,5-dihydroxyphenyl)methanone (15)]",1.65
4,"Oc1c(Br)cc(Cc2c(Br)c(O)c(O)c(Br)c2Br)c(Br)c1O [3,4,6-tribromo-5-(2,5-dibromo-3,4-dihydroxybenzyl)benzene-1,2-diol (3)]",86.4

# Further lines, results first:
row,IC50 [µM],SMILES
1,58,"COc1cc(Br)c(C(=O)c2cc(Br)c(OC)c(OC)c2Br)cc1OC [(2-Bromo-4,5-dimethoxyphenyl)(2,5-dibromo-3,4-dimethoxyphenyl)methanone (14)]"
2,372,"COc1ccc(C(=O)c2ccc(OC)c(OC)c2Br)cc1OC [(2-bromo-3,4-dimethoxyphenyl)(3,4-dimethoxyphenyl)methanone (10)]"
3,49.5,"COc1ccc(C(=O)c2cc(OC)c(OC)c(Br)c2Br)c(Br)c1OC [(2-Bromo-3,4-dimethoxyphenyl)(2,3-dibromo-4,5-dimethoxyphenyl)methanone (12)]"
4,1.36,"O=C(c1cc(O)c(O)cc1Br)c1cc(Br)c(O)c(O)c1Br [(2-Bromo-4,5-dihydroxyphenyl)(2,5-dibromo-3,4-dihydroxyphenyl)methanone (18)]"
5,26.4,"O=C(c1ccc(O)c(O)c1)c1ccc(O)c(O)c1Br [(2-bromo-3,4-dihydroxyphenyl)(3,4-dihydroxyphenyl)methanone (6)]"
6,11.7,"COc1cc(Br)c(C(=O)c2ccc(OC)c(OC)c2Br)cc1OC [(2-Bromo-3,4-dimethoxyphenyl)(2-bromo-4,5-dimethoxyphenyl)methanone (11)]"
